Patent US20260014147A1, “STAT6 DEGRADERS” (Gilead Sciences, Inc., priority 2024, published 2026)

Biological target: T1, STAT6 (endogenous, HiBiT-tagged) in HeLa LgBiT clone 4.14 cells (Homo sapiens, UniProt P42226)
T1 construct: These cells express endogenous STAT6; host or cells: HeLa LgBiT clone 4.14
T1 sequence (P42226 1-847): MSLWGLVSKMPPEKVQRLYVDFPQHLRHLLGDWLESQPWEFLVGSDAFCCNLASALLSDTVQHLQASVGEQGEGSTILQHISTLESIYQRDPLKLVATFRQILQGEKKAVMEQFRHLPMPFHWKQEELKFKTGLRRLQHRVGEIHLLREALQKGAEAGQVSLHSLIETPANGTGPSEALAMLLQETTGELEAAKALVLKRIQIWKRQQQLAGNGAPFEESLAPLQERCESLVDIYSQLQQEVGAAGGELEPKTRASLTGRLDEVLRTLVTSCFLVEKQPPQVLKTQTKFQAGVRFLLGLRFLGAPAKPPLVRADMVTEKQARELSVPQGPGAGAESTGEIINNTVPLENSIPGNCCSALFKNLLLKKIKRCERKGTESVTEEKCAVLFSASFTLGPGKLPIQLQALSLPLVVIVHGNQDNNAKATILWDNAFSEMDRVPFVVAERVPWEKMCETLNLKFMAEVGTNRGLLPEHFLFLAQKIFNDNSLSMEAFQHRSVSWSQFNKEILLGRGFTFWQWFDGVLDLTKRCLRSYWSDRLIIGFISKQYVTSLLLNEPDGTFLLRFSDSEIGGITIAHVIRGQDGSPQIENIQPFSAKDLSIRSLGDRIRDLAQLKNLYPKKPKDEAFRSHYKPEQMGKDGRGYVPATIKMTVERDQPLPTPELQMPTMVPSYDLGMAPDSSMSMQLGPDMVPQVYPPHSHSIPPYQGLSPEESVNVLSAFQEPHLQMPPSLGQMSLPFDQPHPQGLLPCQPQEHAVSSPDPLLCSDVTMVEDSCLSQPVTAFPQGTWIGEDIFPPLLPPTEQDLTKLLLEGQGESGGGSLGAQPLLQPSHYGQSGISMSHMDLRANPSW
Test: STAT6 Degrader Assay (HiBiT based, HeLa LgBiT clone 4.14 cells, luminescence, DC50)
Type: cell-based
Settings: geometric mean; for DC50: DC50 provided for test compounds with >80% Emax, read-out: STAT6 degradation DC50; for Emax: Emax provided for test compounds with <80% Emax (and 2c15), read-out: STAT6 degradation Emax
Outline: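 Remaining STAT6 is read as NanoBiT luminescence after 0.5 h with Nano-Glo, in HeLa LgBiT clone 4.14 cells expressing endogenous HiBiT-tagged STAT6, following 4-24 h compound incubation at 37 °C. Full degradation is set by 50 µM terfenadine, which kills the cells; degradation plotted against log compound concentration.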

Compound	DC50	Emax
CN(C(=O)c1ccc(C2CCN(Cc3cc4c(-c5ccc(N)nc5)ccnc4n3C)CC2)cc1)c1ccc(CC2CCN(c3ccc(NC4CCC(=O)NC4=O)cc3)CC2)cc1 (stereo not shown) [Example 2o1, 4-(1-((4-(6-aminopyridin-3-yl)-1-methyl-1H-pyrrolo[2,3-b]pyridin-2-yl)-methyl)piperidin-4-yl)-N-(4-((1-(4-((2,6-dioxopiperidin-3-yl)amino)phenyl)piperidin-4-yl)methyl)phenyl)-N-methylbenzamide]	–	50 to 60%
CN(C(=O)c1ccc(C2CCN(Cc3cc4c(-c5ccc6[nH]ncc6c5)ccnc4n3C)CC2)cc1)c1ccc(CC2CCN(c3ccc(NC4CCC(=O)NC4=O)cc3)CC2)cc1 (stereo not shown) [Example 2o2, 4-(1-((4-(1H-indazol-5-yl)-1-methyl-1H-pyrrolo[2,3-b]pyridin-2-yl)methyl)-piperidin-4-yl)-N-(4-((1-(4-((2,6-dioxopiperidin-3-yl)amino)phenyl)piperidin-4-yl)methyl)-phenyl)-N-methylbenzamide]	–	60 to 70%
Cn1c(CN2CCC(c3ccc(C(=O)N4CCC(CN5CCC(N6CCN(c7ccc(NC8CCC(=O)NC8=O)cc7F)CC6)C(F)(F)C5)CC4)cc3)CC2)cc2c(-c3ccc4[nH]ncc4c3)ccnc21 (stereo not shown) [Example 2p1, 3-((4-(4-(1-((1-(4-(1-((4-(1H-indazol-5-yl)-1-methyl-1H-pyrrolo[2,3-b]pyridin-2-yl)methyl)-piperidin-4-yl)benzoyl)piperidin-4-yl)methyl)-3,3-difluoropiperidin-4-yl)piperazin-1-yl)-3-fluorophenyl)-amino)piperidine-2,6-dione]	36.9 nM	–
COCc1nc2cc(-c3ccnc4c3cc(CN3CCC(c5ccc(C(=O)N6CCC(CN7CCC(N8CCN(c9ccc(NC%10CCC(=O)NC%10=O)cc9F)CC8)C(F)(F)C7)CC6)cc5)CC3)n4C)ccc2[nH]1 (stereo not shown) [Example 2p3, 3-((4-(4-(3,3-difluoro-1-((1-(4-(1-((4-(2-(methoxymethyl)-1H-benzo[d]imidazol-5-yl)-1-methyl-1H-pyrrolo[2,3-b]pyridin-2-yl)methyl)piperidin-4-yl)benzoyl)piperidin-4-yl)methyl)piperidin-4-yl)piperazin-1-yl)-3-fluorophenyl)amino)piperidine-2,6-dione]	20.6 nM	–
Cn1c(CN2CCC(c3ccc(C(=O)N4CCn5c(CN6CCC(c7ccc(NC8CCC(=O)NC8=O)cc7F)CC6)nnc5C4)cc3)CC2)cc2c(-c3ccc(N)nc3)ccnc21 (stereo not shown) [Example 2q1, 3-((4-(1-((7-(4-(1-((4-(6-aminopyridin-3-yl)-1-methyl-1H-pyrrolo[2,3-b]pyridin-2-yl)methyl)piperidin-4-yl)benzoyl)-5,6,7,8-tetrahydro-[1,2,4]triazolo[4,3-a]pyrazin-3-yl)methyl)piperidin-4-yl)-3-fluorophenyl)amino)piperidine-2,6-dione]	–	40 to 50%
Cn1c(CN2CCC(c3ccc(C(=O)N4CCn5c(CN6CCC(c7ccc(NC8CCC(=O)NC8=O)cc7F)CC6)nnc5C4)cc3)CC2)cc2c(-c3ccc4[nH]ncc4c3)ccnc21 (stereo not shown) [Example 2q2, 3-((4-(1-((7-(4-(1-((4-(1H-indazol-5-yl)-1-methyl-1H-pyrrolo[2,3-b]pyridin-2-yl)methyl)-piperidin-4-yl)benzoyl)-5,6,7,8-tetrahydro-[1,2,4]triazolo[4,3-a]pyrazin-3-yl)methyl)piperidin-4-yl)-3-fluorophenyl)amino)piperidine-2,6-dione]	–	70 to 80%
COCc1nc2cc(-c3ccnc4c3cc(CN3CCC(c5ccc(C(=O)N6CCn7nc(CN8CCC(c9ccc(NC%10CCC(=O)NC%10=O)cc9F)C(F)(F)C8)cc7C6)cc5)CC3)n4C)ccc2[nH]1 (stereo not shown) [Example 2q12, 3-((4-(3,3-difluoro-1-((5-(4-(1-((4-(2-(methoxymethyl)-1H-benzo[d]imidazol-5-yl)-1-methyl-1H-pyrrolo[2,3-b]pyridin-2-yl)methyl)piperidin-4-yl)benzoyl)-4,5,6,7-tetrahydropyrazolo[1,5-a]pyrazin-2-yl)methyl)piperidin-4-yl)-3-fluorophenyl)amino)piperidine-2,6-dione]	12.9 nM	–
Cn1c(CN2CCC(c3ccc(-c4nnc5ccc(N6CCC(CN7CCN(c8ccc(NC9CCC(=O)NC9=O)cc8F)CC7)CC6)nn45)cc3)CC2)cc2c(-c3ccc(N)nc3)ccnc21 (stereo not shown) [Example 2r1, 3-((4-(4-((1-(3-(4-(1-((4-(6-aminopyridin-3-yl)-1-methyl-1H-pyrrolo[2,3-b]pyridin-2-yl)methyl)-piperidin-4-yl)phenyl)-[1,2,4]triazolo[4,3-b]pyridazin-6-yl)piperidin-4-yl)methyl)piperazin-1-yl)-3-fluorophenyl)-amino)piperidine-2,6-dione]	0.35 nM	–

Further lines, results first:

DC50	Emax	Compound
11.7 nM	–	COCc1nc2cc(-c3ccnc4c3cc(CN3CCC(c5ccc(C(=O)N6CCC(CN7CCN(c8ncc(NC9CCC(=O)NC9=O)cc8F)CC7)CC6)cc5)CC3)n4C)ccc2[nH]1 (stereo not shown) [Example 2n6, 3-((5-fluoro-6-(4-((1-(4-(1-((4-(2-(methoxymethyl)-1H-benzo[d]imidazol-5-yl)-1-methyl-1H-pyrrolo[2,3-b]pyridin-2-yl)methyl)piperidin-4-yl)benzoyl)piperidin-4-yl)methyl)piperazin-1-yl)pyridin-3-yl)amino)piperidine-2,6-dione]
18 nM	–	C[C@@H](c1cc2c(-c3ccc4[nH]ncc4c3)ccnc2n1C)N1CCC(c2ccc(C(=O)N3CCC(CN4CCN(c5ccc(NC6CCC(=O)NC6=O)c(F)n5)CC4)CC3)cc2)CC1 (stereo partly drawn) [Example 2n7, 3-((6-(4-((1-(4-(1-((S)-1-(4-(1H-indazol-5-yl)-1-methyl-1H-pyrrolo[2,3-b]pyridin-2-yl)ethyl)-piperidin-4-yl)benzoyl)piperidin-4-yl)methyl)piperazin-1-yl)-2-fluoropyridin-3-yl)amino)piperidine-2,6-dione]
6.5 nM	–	C[C@@H](c1cc2c(-c3ccc4[nH]ncc4c3)ccnc2n1C)N1CCC(c2ccc(C(=O)N3CCC(CN4CCN(c5ncc(NC6CCC(=O)NC6=O)cc5F)CC4)CC3)cc2)CC1 (stereo partly drawn) [Example 2n8, 3-((6-(4-((1-(4-(1-((S)-1-(4-(1H-indazol-5-yl)-1-methyl-1H-pyrrolo[2,3-b]pyridin-2-yl)ethyl)-piperidin-4-yl)benzoyl)piperidin-4-yl)methyl)piperazin-1-yl)-5-fluoropyridin-3-yl)amino)piperidine-2,6-dione]
–	70 to 80%	COCc1nc2cc(-c3ccnc4c3cc([C@H](C)N3CCC(c5ccc(C(=O)N6CCC(CN7CCN(c8ccc(NC9CCC(=O)NC9=O)c(F)n8)CC7)CC6)cc5)CC3)n4C)ccc2[nH]1 (stereo partly drawn) [Example 2n11, 3-((2-fluoro-6-(4-((1-(4-(1-((S)-1-(4-(2-(methoxymethyl)-1H-benzo[d]-imidazol-5-yl)-1-methyl-1H-pyrrolo[2,3-b]pyridin-2-yl)ethyl)piperidin-4-yl)benzoyl)-piperidin-4-yl)methyl)piperazin-1-yl)pyridin-3-yl)amino)piperidine-2,6-dione]
30 nM	79.3%	CNc1ccc(-c2ccnc3c2cc([C@H](C)N2CCC(c4ccc(C(=O)N5CCC(CN6CCN(c7ncc(NC8CCC(=O)NC8=O)cc7F)CC6)CC5)cc4)CC2)n3C)cn1 (stereo partly drawn) [Example 2n13, 3-((5-fluoro-6-(4-((1-(4-(1-((S)-1-(1-methyl-4-(6-(methylamino)pyridin-3-yl)-1H-pyrrolo[2,3-b]pyridin-2-yl)ethyl)piperidin-4-yl)benzoyl)piperidin-4-yl)methyl)-piperazin-1-yl)pyridin-3-yl)amino)piperidine-2,6-dione]
49 nM	–	CNc1ccc(-c2ccnc3c2cc([C@H](C)N2CCC(c4ccc(C(=O)N5CCC(CN6CCN(c7ccc(NC8CCC(=O)NC8=O)c(F)n7)CC6)CC5)cc4)CC2)n3C)cn1 (stereo partly drawn) [Example 2n14, 3-((2-fluoro-6-(4-((1-(4-(1-((S)-1-(1-methyl-4-(6-(methylamino)pyridin-3-yl)-1H-pyrrolo[2,3-b]pyridin-2-yl)ethyl)piperidin-4-yl)benzoyl)piperidin-4-yl)methyl)piperazin-1-yl)pyridin-3-yl)amino)piperidine-2,6-dione]
61 nM	–	Cn1c(CN2CCC(c3ccc(C(=O)N4CCC(CN5CCC(N6CCN(c7ccc(NC8CCC(=O)NC8=O)cc7F)CC6)C(F)(F)C5)CC4)cc3)CC2)cc2c(-c3ccc(N)nc3)ccnc21 (stereo not shown) [Example 2p2, 3-((4-(4-(1-((1-(4-(1-((4-(6-aminopyridin-3-yl)-1-methyl-1H-pyrrolo[2,3-b]pyridin-2-yl)-methyl)piperidin-4-yl)benzoyl)piperidin-4-yl)methyl)-3,3-difluoropiperidin-4-yl)piperazin-1-yl)-3-fluorophenyl)amino)piperidine-2,6-dione]
